Test results published in article PMC9421655, “Novel Antagonist of the Type 2 Lysophosphatidic Acid Receptor (LPA2), UCM-14216, Ameliorates Spinal Cord Injury in Mice” (Journal of Medicinal Chemistry, 2022).
Where two headings read alike, the source gives them in different places.

Tests used:
LPA1 [1] = target: T1, LPA1 (Homo sapiens, UniProt Q92633); assay: cell-based; design: Emax: dose or concentration left out as unconfirmed
Description: (§1) Cells stably expressing the corresponding LPA1–3 receptor were grown as described previously.[18] Changes in intracellular calcium levels were measured by using the fluorescent calcium sensitive dye Fluo-4 NW (Invitrogen). RH7777 cells or B103 cells were plated on poly-D-lysine or collagen coated, respectively, black-wall clear-bottom 96-well plates (Corning) at a density of 50 000 cells/well and cultured overnight. The culture medium was then replaced with 100 μL of Fluo-4 NW dye loading solution containing 2.5 μM of probenecid and incubated for 30 min at 37 °C followed by an additional 30 min at rt. […] Fluorescence changes were registered in a FluoStar Optima instrument (BMG Labtech) at 525 nm using an excitation wavelength of 494 nm. […] The data presented are from two to four independent experiments carried out in triplicate or quadruplicate. Dose–response curves were generated and IC50 values calculated by nonlinear regression analysis using Prism software version 5 (GraphPad Software Inc., San Diego, CA, USA).

LPA2 [2] = target: T2, LPA2 (Homo sapiens, UniProt Q9HBW0); assay: Ca2+ mobilization assay, antagonist activity at LPA2; assay type: cell-based; details: for IC50: antagonism of 10 μM LPA, mean ± s.e.m.
T2 construct: expressed in transfected cells
Description: as §1
Figure S2. Dose response curves for compounds 13, 44, 53, 54, and 55. B103 cells stably expressing LPA2 receptor were incubated with different concentrations of the compound under study and […]
Curves were generated with PRISM software version 5 (GraphPad Software Inc, San Diego, CA, USA) using nonlinear regression analysis. Each data point corresponds to the mean±SEM of two to four independent experiments carried out in triplicate or quadruplicate.

LPA3 [3] = target: T3, LPA3 (Homo sapiens, UniProt Q9UBY5); assay: cell-based
T3 sequence (Q9UBY5 1-353): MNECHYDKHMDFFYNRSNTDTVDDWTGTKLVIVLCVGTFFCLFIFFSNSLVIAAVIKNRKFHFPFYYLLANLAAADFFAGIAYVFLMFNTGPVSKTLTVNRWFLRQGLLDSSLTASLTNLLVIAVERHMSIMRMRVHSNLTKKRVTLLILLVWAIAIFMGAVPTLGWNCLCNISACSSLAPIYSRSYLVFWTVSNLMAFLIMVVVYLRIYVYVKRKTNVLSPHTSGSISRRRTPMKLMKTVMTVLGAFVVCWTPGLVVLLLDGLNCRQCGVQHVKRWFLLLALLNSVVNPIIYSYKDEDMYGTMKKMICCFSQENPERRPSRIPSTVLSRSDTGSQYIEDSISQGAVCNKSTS
Description: as §1

LPA2 [4] = target: T2, LPA2; assay: Ca2+ mobilization assay, agonist activity at LPA2; assay type: cell-based; details: 10 μM compound
Description: The agonist activity at LPA2 receptors was determined at 10 μM concentration for all final compounds as previously described.[18]
Figure S1. Representative snapshots showing the lack of significant agonist activity of selected compounds. (A) 1; (B) 13; (C) 54; and (D) Ki16425. (E) Graphs show the agonist activity induced […]
stably expressing LPA2 receptor were plated on collagen-coated black-wall clear-bottom 96-well plates (Corning) at a density of 50000 cells/well and cultured overnight. The culture medium was then replaced with Fluo-4 NW dye loading solution containing 2.5 µM of probenecid and incubated […]
for 30 minutes at 37 °C followed by an additional 30 minutes at rt. Fluorescence changes were registered in a FluoStar Optima instrument (BMG Labtech) at 525 nm using an excitation wavelength of 494 nm. Each well was monitored for 240 s. 20 µL of the test compound from a 6x stock solution in assay buffer were added after 120 s of starting the measurement. Ca2+ transient increase was quantified by calculating the difference between maximum and baseline values for each […]
Graphs shown are representative of two to three independent experiments.

[5] = Parallel artificial membrane permeability assay (PAMPA); assay type: in vitro ADME; details: PBS pH 7.4, 5 h, rt
Description: These studies were carried out as previously described with minor modifications.[41],[42] The assessment of the membrane permeability of synthesized compounds and propranolol and metoprolol as reference compounds was performed in a commercially available 96-well Corning Gentest precoated PAMPA plate system (Cultek S.L.U., Spain). Prior to use, the precoated PAMPA plate system was warmed to rt for 30 min and 300 μL of 200 μM solution of tested compound in 2% DMSO in PBS (pH 7.4) were added into wells in the receiver (donor) plate. Then, 200 μL of PBS were added into wells in the filter (acceptor) plate. The filter plate was placed on the receiver plate by slowly lowering the precoated PAMPA plate until it sits on the receiver plate. The assembly was incubated at rt for 5 h, and then buffer samples were collected carefully from each plate. The final concentrations of compound in both donor and acceptor wells were analyzed by HPLC-MS and quantification was estimated by using the peak area integration normalized with an internal standard. Permeability value of the compounds was calculated using the following formula: P (cm/s) = {−ln[1 – CA(t)/Ceq]}/[A(1/VD + 1/VA)t], where A = filter area (0.3 cm^2), VD = donor well volume (0.3 mL), VA = acceptor well volume (0.2 mL), t = incubation time (s), CA(t) = compound concentration (μM) in the acceptor well at time t, CD(t) = compound concentration (μM) in donor well at time t, and Ceq = [CD(t)VD + CA(t)VA]/(VD + VA). Assays were performed in duplicate, and the compound was tested in two different plates on different days.

[6] = Metabolic stability in mouse liver microsomes; assay type: in vitro ADME; details: male, CD-1, mouse, liver microsomes (pooled), 1 mg/mL protein, NADPH, 37 °C, read-out: stability (t1/2, min) MLMs
Description: (§2) Reactions were initiated by the addition of a suspension of mouse liver microsomes (MLMs) (male CD-1 mice pooled, Sigma-Aldrich) or human liver microsomes (HLMs) (male human pooled, Sigma-Aldrich), respectively, at a final protein concentration of 1 mg/mL. […] Aliquots of 100 μL were quenched at time zero and at seven points ranging to 2 h (MLM) or 4 h (HLM) by pouring into 100 μL of ice-cold acetonitrile. […] The relative disappearance of the compound under study over the course of the incubation was monitored by HPLC-MS using SIM mode. Concentrations were quantified by measuring the area under the peak ([M + H]^+) normalized with an internal standard and converted to the percentage of compound remaining, using the time zero peak area value as 100%. The natural logarithm of the remaining percentage versus time data for each compound was fit to a linear regression, and the slope was used to calculate the degradation half-life (t1/2).

[7] = Metabolic stability in human liver microsomes; assay type: in vitro ADME; details: male, liver microsomes (pooled), 1 mg/mL protein, NADPH, 37 °C, read-out: stability (t1/2, min) HLMs
Description: as §2

LPA2 [8] = target: T2, LPA2; details: cited from earlier work
LPA1 [9] = target: T1, LPA1; design: expressed in transfected cells; details: cited from earlier work
LPA3 [10] = target: T3, LPA3; design: expressed in transfected cells; details: cited from earlier work
[11] = maximum blockade of activation induced by 10 μM LPA (18:1) at 10 μM compound, N.E. = no effect at 10 μM

T1 sequence (Q92633 whole entry, species assumed): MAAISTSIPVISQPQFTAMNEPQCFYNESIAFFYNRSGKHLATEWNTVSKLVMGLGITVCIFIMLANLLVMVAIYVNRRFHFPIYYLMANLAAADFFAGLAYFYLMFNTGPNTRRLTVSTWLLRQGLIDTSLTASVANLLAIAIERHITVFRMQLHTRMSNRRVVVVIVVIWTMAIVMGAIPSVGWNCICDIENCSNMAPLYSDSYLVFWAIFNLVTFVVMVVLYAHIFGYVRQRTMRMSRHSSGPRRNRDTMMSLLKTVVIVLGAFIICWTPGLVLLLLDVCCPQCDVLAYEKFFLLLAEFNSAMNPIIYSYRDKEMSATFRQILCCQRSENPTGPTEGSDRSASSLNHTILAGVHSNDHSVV
T2 sequence (Q9HBW0 whole entry, species assumed): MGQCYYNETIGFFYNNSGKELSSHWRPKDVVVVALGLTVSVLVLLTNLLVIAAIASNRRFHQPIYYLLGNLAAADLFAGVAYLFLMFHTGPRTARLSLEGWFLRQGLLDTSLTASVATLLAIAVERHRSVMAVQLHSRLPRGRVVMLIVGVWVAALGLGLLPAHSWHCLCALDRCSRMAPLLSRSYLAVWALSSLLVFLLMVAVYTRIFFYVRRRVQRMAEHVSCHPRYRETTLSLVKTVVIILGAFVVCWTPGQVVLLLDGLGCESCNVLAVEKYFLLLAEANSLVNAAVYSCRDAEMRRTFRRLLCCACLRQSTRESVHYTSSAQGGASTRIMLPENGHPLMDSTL

Row | SMILES | Emax (%) LPA1 (LPA1 [1]; [11]) | Emax at 10 µM (LPA2 [2]) | IC50 (LPA2 [2]) | Emax (%) LPA3 (LPA3 [3]; [11]) | agonist activity at LPA2 receptor (LPA2 [4]) | P (cm/s), permeability value ([5]; 200 μM) | Papp at 5 h, 200 μM ([5]; pH 7.4, PAMPA, read-out: P (cm/s), permeability value) | half-life at 1 μM [6] | half-life at 5 μM [7] | melting point | Emax (LPA1 [1]; read-out: Emax (%) LPA1) | IC50 (LPA1 [1]; read-out: IC50 (μM) LPA1, antagonism of 10 μM LPA, mean ± s.e.m.) | Emax (LPA3 [3]; read-out: Emax (%) LPA3) | IC50 (LPA3 [3]; read-out: IC50 (μM) LPA3, antagonism of 10 μM LPA, mean ± s.e.m.) | IC50 (LPA2 [8]) | IC50 (LPA1 [9]) | IC50 (LPA3 [10])
1 | Cc1[nH]nc(-c2ccc(OCC(=O)O)cc2O)c1Oc1ccc(Cl)cc1Cl [Compound 13, {4-[4-(2,4-Dichlorophenoxy)-5-methyl-1H-pyrazol-3-yl]-3-hydroxyphenoxy}acetic Acid] | N.E. and N.E. ^c | 84 ± 3% | 5.5 µM | N.E. | lack | 0.1 × 10^–6 cm/s | 0.11 ×10⁻⁶ cm/s | ~16 min | ~60 min | > 196 °C (dec.) | – | – | – | – | – | – | –
2 | Cc1noc(-c2ccc(CSCCC(=O)O)cc2)c1NC(=O)OC(C)c1ccccc1Cl (centres unmarked) [Ki16425, reference compound] | – | 92 ± 3% | 1.2 µM | – | lack | – | – | – | – | – | 97 ± 4% | 0.8 µM | 99 ± 3% | 1.6 µM | 6500 nM | 340 nM | 930 nM
